Reference: patent US9422285B2, “Substituted pyrazolo[1,5-A]-pyridine-3-carboxamides and use thereof” (Bayer Pharma Aktiengesellschaft, priority 2014, dated 2016)
Counter-ions that a name gives are not always drawn.

What follows are compounds tested against T1, recombinant guanylate cyclase reporter cell line (Rattus norvegicus, UniProt P19686+P20595) (assay: Effect on a recombinant guanylate cyclase reporter cell line (B-2)). Conditions: in some cases mean values for individual determinations.
T1 construct: expressed in transfected cells
T1 sequence (P19686 1-690): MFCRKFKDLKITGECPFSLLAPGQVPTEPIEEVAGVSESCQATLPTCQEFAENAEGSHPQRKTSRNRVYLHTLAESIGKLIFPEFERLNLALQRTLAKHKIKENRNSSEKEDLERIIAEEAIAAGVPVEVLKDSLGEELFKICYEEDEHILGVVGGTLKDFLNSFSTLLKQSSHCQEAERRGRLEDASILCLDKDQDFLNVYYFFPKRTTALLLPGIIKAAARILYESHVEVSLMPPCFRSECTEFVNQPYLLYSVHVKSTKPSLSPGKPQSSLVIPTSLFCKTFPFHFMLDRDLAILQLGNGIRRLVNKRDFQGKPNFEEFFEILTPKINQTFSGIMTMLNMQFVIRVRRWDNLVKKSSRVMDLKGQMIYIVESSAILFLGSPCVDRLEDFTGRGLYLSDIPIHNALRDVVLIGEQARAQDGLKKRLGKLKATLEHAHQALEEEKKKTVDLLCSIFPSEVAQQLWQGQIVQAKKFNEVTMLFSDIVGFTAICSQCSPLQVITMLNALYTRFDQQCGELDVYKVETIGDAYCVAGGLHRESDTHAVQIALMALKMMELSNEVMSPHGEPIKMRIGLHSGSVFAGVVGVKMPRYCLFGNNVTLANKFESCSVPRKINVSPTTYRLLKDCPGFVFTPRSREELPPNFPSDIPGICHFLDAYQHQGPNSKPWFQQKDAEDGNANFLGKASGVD
T1 sequence (P20595 1-619): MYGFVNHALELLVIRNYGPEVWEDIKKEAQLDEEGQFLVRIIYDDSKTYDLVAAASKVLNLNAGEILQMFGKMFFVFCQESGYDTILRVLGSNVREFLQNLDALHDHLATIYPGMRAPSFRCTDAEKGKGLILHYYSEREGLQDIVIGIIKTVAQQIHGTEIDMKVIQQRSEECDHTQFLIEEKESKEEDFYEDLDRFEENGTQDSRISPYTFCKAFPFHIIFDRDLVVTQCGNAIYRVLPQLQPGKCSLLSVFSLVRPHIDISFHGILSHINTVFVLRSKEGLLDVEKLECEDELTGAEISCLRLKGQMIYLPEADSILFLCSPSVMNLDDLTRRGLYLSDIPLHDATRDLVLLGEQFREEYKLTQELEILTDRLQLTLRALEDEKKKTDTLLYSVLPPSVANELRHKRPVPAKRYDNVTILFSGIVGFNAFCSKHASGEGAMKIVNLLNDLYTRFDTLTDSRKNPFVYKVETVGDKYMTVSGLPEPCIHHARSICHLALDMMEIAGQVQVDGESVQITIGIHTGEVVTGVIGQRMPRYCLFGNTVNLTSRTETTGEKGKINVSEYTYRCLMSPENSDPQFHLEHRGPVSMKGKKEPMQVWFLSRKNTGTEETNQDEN
Format: cell-based
Protocol: B-2. Effect on a Recombinant Guanylate Cyclase Reporter Cell Line
The cellular effect of the inventive compounds is determined using a recombinant guanylate cyclase reporter cell line, as described in F. Wunder et al., Anal. Biochem. 339, 104-112 (2005).
Representative MEC values (MEC=minimum effective concentration) for the inventive compounds are shown in the table below (in some cases as mean values for individual determinations): […]

MEC (minimum effective concentration) [µM]	Structure (SMILES)
0.03	Cc1cc(OCc2c(F)cccc2F)n2nc(C)c(C(=O)Nc3ccnc4ccc(F)cc34)c2c1 [Example 80, 7-[(2,6-Difluorobenzyl)oxy]-N-(6-fluoroquinolin-4-yl)-2,5-dimethylpyrazolo[1,5-a]pyridine-3-carboxamide trifluoroacetate]
1.0	Cc1cc(OCc2c(F)cccc2F)n2nc(C)c(C(=O)NCC(F)(F)CN)c2c1 [Example 81, N-(3-Amino-2,2-difluoropropyl)-7-[(2,6-difluorobenzyl)oxy]-2,5-dimethylpyrazolo[1,5-a]pyridine-3-carboxamide]
3.0	Cc1cc(OCc2c(F)cccc2F)n2nc(C)c(C(=O)NCC(=O)NC3CC3)c2c1 [Example 89, N-[2-(Cyclopropylamino)-2-oxoethyl]-7-[(2,6-difluorobenzyl)oxy]-2,5-dimethylpyrazolo[1,5-a]pyridine-3-carboxamide]
0.1	Cc1cc(OCc2c(F)cccc2F)n2nc(C)c(C(=O)NC3(c4ccc(F)c(F)c4)CC3)c2c1 [Example 90, 7-[(2,6-Difluorobenzyl)oxy]-N[1-(3,4-difluorophenyl)cyclopropyl]-2,5-dimethylpyrazolo[1,5-a]pyridine-3-carboxamide]
10	Cc1cc(OCc2c(F)cccc2F)n2nc(C)c(C(=O)NCCN3CCN(C)CC3)c2c1 [Example 93, 7-[(2,6-Difluorobenzyl)oxy]-2,5-dimethyl-N-[2-(4-methylpiperazin-1-yl)ethyl]pyrazolo[1,5-a]pyridine-3-carboxamide]
1.0	CCCC[C@@H](C)NC(=O)c1c(C)nn2c(OCc3c(F)cccc3F)cc(C)cc12 [Example 94, 7-[(2,6-Difluorobenzyl)oxy]-N-[(2R)-hexan-2-yl]-2,5-dimethylpyrazolo[1,5-a]pyridine-3-carboxamide]
10	CC(=O)NCCNC(=O)c1c(C)nn2c(OCc3c(F)cccc3F)cc(C)cc12 [Example 96, N-(2-Acetamidoethyl)-7-[(2,6-difluorobenzyl)oxy]-2,5-dimethylpyrazolo[1,5-a]pyridine-3-carboxamide]
3.0	Cc1cc(OCc2c(F)cccc2F)n2nc(C)c(C(=O)N[C@@H]3CCNC3=O)c2c1 [Example 98, 7-[(2,6-Difluorobenzyl)oxy]-2,5-dimethyl-N-[(3R)-2-oxopyrrolidin-3-yl]pyrazolo[1,5-a]pyridine-3-carboxamide]
3.0	Cc1cc(OCc2c(F)cccc2F)n2nc(C)c(C(=O)NC3CC(C)(C)C3N)c2c1 (stereo not drawn) [Example 101, N-(2-Amino-3,3-dimethylcyclobutyl)-7-[(2,6-difluorobenzyl)oxy]-2,5-dimethylpyrazolo[1,5-a]pyridine-3-carboxamide]
1.0	CCOC(=O)NCCNC(=O)c1c(C)nn2c(OCc3c(F)cccc3F)cc(C)cc12 [Example 106, Ethyl {2-[({7-[(2,6-difluorobenzyl)oxy]-2,5-dimethylpyrazolo[1,5-a]pyridin-3-yl}carbonyl)amino]ethyl}carbamate]
1.0	Cc1cc(OCc2c(F)cccc2F)n2nc(C)c(C(=O)NC3c4cccc(F)c4OC3C)c2c1 (stereo not drawn) [Example 111, 7-[(2,6-Difluorobenzyl)oxy]-N-(7-fluoro-2-methyl-2,3-dihydro-1-benzofur-3-yl)-2,5-dimethylpyrazolo[1,5-a]pyridine-3-carboxamide]
3.0	Cc1cc(OCc2c(F)cccc2F)n2nc(C)c(C(=O)N[C@H]3C[C@H]4CN(C)CCN4C3)c2c1 [Example 113, 7-[(2,6-Difluorobenzyl)oxy]-2,5-dimethyl-N-[(7S,8aS)-2-methyloctahydropyrrolo[1,2-a]pyrazin-7-yl]pyrazolo[1,5-a]pyridine-3-carboxamide]
